# According to PMC7746742, “The novel rexinoid MSU-42011 is effective for the treatment of preclinical Kras-driven lung cancer” (Scientific Reports, 2020):
# What was measured:
# [1] = Plasma triglycerides in MMTV-neu mice fed rexinoids; assay type: in vivo; conditions: MMTV-neu mice fed rexinoids for 10 days, n=5-6 mice/group
# Description: fold expression triglyceride
# Supplemental Fig 1. Correlation of SREPB mRNA expression and triglyceride levels. HepG2 human liver cells were treated with 300 nM of rexinoids for 8 hr,and lysates analyzed by RT-PCR. Triglycerides in plasma from MMTV-neu mice fed rexinoids for10 days were measured using a commercial kit(Abcam). *, p <0.01 vs control; **, p<0.05 vs bex and LG268; n=5-6 mice/group.
# [2] = Steady state drug levels in plasma after 12 weeks on diet (HPLC-MS); assay type: in vivo, A/J mice; conditions: A/J, mouse, oral, 100 mg/kg diet for 12 weeks, LC-MS, n = 8, mean ± SE
# Description: Blood was collected via cardiac puncture into 1 ml lithium heparin tubes (Greiner Bio-one). Blood was centrifuged at 5000 g for 5 min at 4 °C. Plasma was separated and frozen at − 80 °C until processed as described. Acetonitrile was added to precipitate plasma proteins. Samples were centrifuged at 14,000 g for 5 min, and the supernatant was filtered with a 0.2 µm syringe filter. Each sample was dried overnight and reconstituted in 200 µl of 50:50 methanol:water solution for analysis via HPLC. HPLC was performed on a Quatro Premier instrument with an Ascentis Express C18 column and an Acquity UPLC system. The mobile phase A consisted of 10 mM aq. ammonium acetate and the mobile phase B consisted of methanol. The following gradient was applied 99–5% A (0–4 min), 5% A (4–5.1 min), 5–99% A (5.1–6 min). The flow rate was 0.3 ml/minute, and bexarotene and MSU-42011 were detected at ~ 4.5 min. A standard curve was prepared by processing plasma from untreated animals and spiking the samples with 0.1–3 μM of the appropriate rexinoid then reconstituting the samples.
# [3] = tested on: SREBP; assay: SREBP protein expression in HepG2 cells (western blot); assay type: cell-based, human; conditions: 300 nM rexinoids, 24 h
# Description: Although we have confirmed that the iNOS assay correlates with in vivo efficacy, few investigators have used the induction of SREBP in vitro as a biomarker to predict the ability of novel rexinoids to increase triglycerides in vivo. Elevated triglycerides are a side-effect found with many RXR agonists in preclinical models and by bexarotene in humans[13],[14]. […] HepG2 human liver cells were used, as the liver is the major organ that regulates lipid homeostasis.
# HepG2 were plated in 6-well plates (1 × 10^6 cells/well) and, after allowing the cells to attach overnight, were treated with 300 nM rexinoids and/or varying concentrations of T0901317 (TOCRIS # 2373), GSK 2033 (TOCRIS # 5694), HX 531 (TOCRIS # 3912) for 8 h. Total RNA was isolated with TRIzol (Invitrogen, Carlsbad, CA) and 2 µg RNA was used to synthesize cDNA using the SuperScript III reverse transcriptase kit (Invitrogen, Carlsbad, CA). Primers (IDT) for SREBP (F: 5′-GCCGGTTGATAGGCAGCTT-3′; R: 5′-GGTGAGTGGCGGAACCATT-3′) and GAPDH (F: 5′-[…]-3′; R: 5′-[…]-3′), the SYBR Green Supermix (Bio-rad Laboratories, Hercules, CA) and the QuantStudio 7 Flex Real-Time PCR system (95 °C for 20 s followed by 40 cycles of 95 °C for 15 s and 60 °C for 1 min were used to detect mRNA expression. Relative SREBP/GAPDH gene expression was calculated by the delta-delta Ct method. To evaluate protein expression by western blotting, HepG2 cells were plated as above and treated with 300 nM of rexinoids for 24 h. Cells were harvested and lysed in RIPA buffer (1 M Tris–Cl, 5 M NaCl, pH 7.4, 0.5 M EDTA, 25 mM sodium deoxycholate, 1% triton-X, 0.1% SDS, 0.0125% aprotinin) with protease inhibitors (1% PMSF/0.5% apoprotein/0.1%leupeptin). Protein concentration was measured using a BCA assay (Sigma-Aldrich). Proteins (10 µg/well) were separated in 10% SDS-PAGE gels and transferred to nitrocellulose membranes. Membranes were incubated with SREBP (Active Motif; 1:1000) and GAPDH (Santa Cruz Biotechnology; 1:8000) primary antibodies followed by anti-rabbit secondary antibodies conjugated to horseradish peroxidase (Cell Signaling). Signal was detected using the ECL Western Blotting Substrate (GE Healthcare), and protein levels quantified using ImageJ.
# [4] = tested on: Kras-driven lung tumors; assay: Treatment of established vinyl carbamate-induced lung adenocarcinomas in A/J mice; assay type: in vivo
# Description: All experiments were performed ethically in accordance with the best practices and AAALAC-accredited Standards for the Management of Laboratory Animals at Michigan State University (MSU). These standards include making every effort to minimize suffering. Mice were euthanized by inhalation of carbon dioxide followed by removal of the lungs. All animal protocols were approved by the Institutional Animal Care and Use Committee (IACUC, protocol 201,800,050)) at MSU. At 7 and 8 weeks of age, A/J female mice (Jackson Laboratories) were injected i.p. with vinyl carbamate (Toronto Research Chemicals, 0.32 mg/mouse). Mice were fed a semi-synthetic diet (AIN-93G BioServ, Flemington NJ), beginning one week before initiation with vinyl carbamate and then for 8 weeks after the first injection. The mice were then randomized into groups (n = 15 mice/group) and fed treatment diets (100 mg rexinoid/kg AIN-93G diet or ~ 25 mg/kg body weight) for 12 weeks. Rexinoids were dissolved in a vehicle of 12.5 ml ethanol and 37.5 ml Neobee oil (Spectrum Chemical, Gardena CA) per kg AIN-93G diet. Six total doses of paclitaxel (Fisher; 15 mg/kg i.p.) and then carboplatin (Fisher; 50 mg/kg i.p.) were given every other week, beginning 9 weeks after injection with vinyl carbamate. After 12 weeks on the treatment diets, blood and lungs were harvested. Lungs were inflated with PBS and surface lesions counted. The left lung was fixed in neutral-buffered formalin (NBF), then sample numbers blinded and randomized. Grossly visible lung tumors on the surface of the left lung were counted. The left lung was embedded in paraffin, step-sectioned (6 sections/lung, 200 microns apart) and then stained with Haemotoxylin and Eosin (H&E). The number, size, and histopathology of tumors on the slides were then evaluated as described. The right lobes of the lung were divided into halves. One half was analyzed by flow cytometry and the other half flash frozen (CO2 and ethanol bath) and stored at − 80 °C.
# At 11, 15, and 20 weeks after initiation, anesthesia was induced using 2–4% isofluorane in oxygen at 0.8–2 L/min in a chamber and then maintained using 1.5–2% isofluorane in oxygen at 0.8 L/min using a nosecone. Animals were kept on a heating pad or a heated platform while under anesthesia. Fur was removed from the thoracic area using a chemical depilitory (Nair) immediately prior to imaging. A Vevo 2100 (Fujifilm VisualSonics) high-frequency ultrasound with a MS550D 40 MHz transducer was used to image lung tumors.
# [5] = rexinoids 100 mg/kg diet 12 weeks, C/P i.p. x6
# [6] = rexinoids 100 mg/kg diet 12 weeks, C/P i.p. x6, mean ± SE
# [7] = tumor histopathology, 12 weeks of treatment
compound,measurement,setting,value
C=C(c1ccc(C(=O)O)cc1)c1cc2c(cc1C)C(C)(C)CCC2(C)C [Bexarotene],Plasma triglyceride levels in mice,[1],2.38 ± 0.3 nmol/µL
same,concentration at 12 weeks,[2],81.2 ± 14.9 nM
same,SREBP protein levels compared to DMSO control,[3],increased SREBP protein levels
same,Single agent activity in this model,"[4]; 100 mg/kg diet, 12 weeks",inactive
same,Tumor grades compared to the controls,[4]; 12 weeks of treatment,no differences
same,Average # tumors/slide,"[4]; rexinoids 100 mg/kg diet 12 weeks, C 50 mg/kg and P 15 mg/kg i.p. x6, mean ± SE",3.37 ± 0.3
same,Average # tumors/slide (% control),[4]; [5],79%
same,Average tumor burden (% control),[4]; [5],78%
same,Average tumor size (% control),[4]; [5],100%
same,Average tumor burden,[4]; [6],0.72 ± 0.2 mm^3
same,Average tumor size,[4]; [6],0.22 ± 0.04 mm^3
same,# High grade tumors,[4]; [7],71
same,# Low grade tumors,[4]; [7],1 (1%)
same,# Medium grade,[4]; [7],29 (29%)
same,High grade tumors (% total),[4]; [7],70%
same,Low grade tumors (% total),[4]; [7],1 (1%)
same,Medium grade (% total),[4]; [7],29 (29%)
